The values below come from the Deep4Chem optical property database.

The nature of the data set: solvent given as SMILES.

Turning to `CC1(C)c2ccccc2N(c2ccc(-c3ccc(C#N)cc3)cc2)c2ccccc21`, the absorption maximum (in Cc1ccccc1) came out at 358 nm.

On to `CCN(CC)c1ccc2c(c1)oc(=O)c1cc3c(-c4ccccc4)nn(-c4ccccc4)c3nc12`, for which the absorption maximum (in ClCCl) is recorded as 359 nm.

With `Nc1nc2c([nH]c(=O)n2[C@H]2C[C@H](O)[C@@H](CO)O2)c(=O)[nH]1`, the absorption maximum (in O) is reported as 294.99 nm.

Take `CC[n+]1c(C=C2C(=O)C(C=C3N(C)c4ccc(Cl)cc4C3(C)C)=C2[O-])[se]c2ccccc21`: the absorption maximum (in CO) was determined as 644 nm, the absorption maximum (in ClC(Cl)Cl) was 655 nm and the absorption maximum (in ClCCl) was determined as 659 nm.

As for `COc1ccc(C2=C3C=c4c(oc5cc6c(cc45)[C@H]4CC[C@]5(C)C(=O)CC[C@H]5[C@@H]4CC6)=[N+]3[B-](F)(F)n3c2cc2c4cc5c(cc4oc23)CC[C@@H]2[C@@H]5CC[C@]3(C)C(=O)CC[C@@H]23)cc1`, the absorption maximum runs as follows: (in CCOC(C)=O) 596.5 nm; (in CCOCC) 596.5 nm; (in CO) 595.5 nm.

Consider `Cc1cc(-n2c3ccccc3c3ccccc32)ccc1-c1ccc(S(=O)(=O)c2ccccc2)cc1C`, for which the absorption maximum (in Cc1ccccc1) is on record as 340 nm.

With `[NH3+]c1cc([NH3+])cc(-c2nc3ccccc3s2)c1`, the absorption maximum (in O) is reported as 315 nm.

As to `Nc1cc([NH3+])cc(-c2nc3ccccc3s2)c1`, the absorption maximum (in O) turned out to be 300 nm.

Regarding `COc1ccc(C2=C/C(=C\c3ccc(C#N)cc3)C(=O)O2)cc1OC`, the absorption maximum (in C1COCCO1) is recorded as 428 nm.

In the case of `Nc1n[n+]([O-])c2cc(F)ccc2[n+]1[O-]`, the absorption maximum runs as follows: (in CC#N) 489 nm; (in O) 468 nm.

Under “in C1CCCCC1”, `c1ccc(-c2cc3cccc[n+]3[b-]3ccc(-c4cc[b-]5c(c4)c(-c4ccccc4)cc4cccc[n+]54)cc32)cc1` returned an absorption maximum of 517 nm.

For the setting “in CC#N”, `COc1ccc(/C=C/c2ccccc2)cc1OC` yielded an absorption maximum of 321 nm.

As to `CCn1c2ccccc2c2cc(-c3cc(-c4ccc5c(c4)c4ccccc4n5CC)ncn3)ccc21`, the absorption maximum stood at 360 nm (in C1CCOC1); 359 nm (in CCOC(C)=O); 363 nm (in CN(C)C=O); 360 nm (in Cc1ccccc1); 360 nm (in ClCCl).

As to `CCN(CC)c1ccc2c(C#N)c(/C=C(\C#N)c3nc4ccccc4s3)c(=O)oc2c1`, the absorption maximum reads like this: (in C1COCCO1) 561 nm; (in CC#N) 597 nm; (in CCO) 602 nm; (in CCOC(C)=O) 568 nm; (in CN(C)C=O) 525 nm; (in CO) 591 nm. Moreover, the absorption maximum reads like this: (in CS(C)=O) 531 nm; (in Cc1ccccc1) 560 nm; (in ClCCl) 611 nm.

Take `CC(C)(C)c1ccc2c(c1)c1cc(C(C)(C)C)ccc1n2-c1ccc(N(c2ccc(-c3ccc4c(c3)C(C)(C)c3cc(-c5ccc(N(c6ccc(-n7c8ccc(C(C)(C)C)cc8c8cc(C(C)(C)C)ccc87)cc6)c6ccc(-n7c8ccc(C(C)(C)C)cc8c8cc(C(C)(C)C)ccc87)cc6)cc5)ccc3-4)cc2)c2ccc(-n3c4ccc(C(C)(C)C)cc4c4cc(C(C)(C)C)ccc43)cc2)cc1`: for the setting “in ClCCl”, the absorption maximum amounted to 373 nm.

In turn, `CC1(C)OB(c2cc3ccc4cccc5ccc(c2)c3c45)OC1(C)C` had an absorption maximum (in Cc1ccccc1) of 385 nm.

`COc1cc2sc3nc(-c4ccccc4OC)sc3c2cc1OC` showed an absorption maximum (in CS(C)=O) of 365 nm.

As to `N#Cc1ccc(/C=C/c2ccc(C=C(c3ccccc3)c3ccccc3)cc2)cc1`, the absorption maximum (in C1CCOC1) was 366 nm.

As to `Cc1ccc(-c2ccc(/C=C/c3ccc(F)cc3)cn2)nc1`, the absorption maximum (in CC#N) was determined as 334 nm.

As to `COC1=[N+]2C(=C(c3ccccc3)c3cc(SC#N)c(OC)n3[B-]2(F)F)C=C1SC#N`, the absorption maximum runs as follows: (in CC#N) 513 nm; (in CCCCCC) 518 nm; (in CCOC(C)=O) 515 nm; (in CO) 512 nm; (in ClCCl) 518 nm.

As for `CCN(CC)c1ccc2cc(/C=C/C3=C4CC/C(=C\c5cc6ccc(N(CC)CC)cc6oc5=O)C4=[O+][B-](F)(F)O3)c(=O)oc2c1`, the absorption maximum (in C1COCCO1) was 629 nm; the absorption maximum (in CC#N) is listed as 655 nm; the absorption maximum (in CC(C)=O) worked out at 653 nm; the absorption maximum (in CCOC(C)=O) amounted to 636 nm; the absorption maximum (in CN(C)C=O) is reported as 673 nm; the absorption maximum (in CS(C)=O) stood at 690 nm. Further, the absorption maximum runs as follows: (in Cc1ccccc1) 629 nm; (in ClC(Cl)Cl) 644 nm; (in ClCCl) 653 nm.

Compound `Brc1ccc(N2c3c(sc4ccccc34)Sc3sc4ccccc4c32)cc1` displayed an absorption maximum (in ClCCl) of 309 nm.

For `Nc1cccc2c1-c1ccccc1C2=O`, the absorption maximum is listed as 427 nm (in C1CCCCC1), 451 nm (in CC#N), 458 nm (in CCO) and 440 nm (in c1ccccc1).

Take `CCOC(=O)c1sc(-c2ccc(-c3cc(C4CC4)c(C(=O)OCC)s3)s2)cc1C1CC1`: the absorption maximum (in ClCCl) is 395 nm.

`O=C(c1ccc(C(=O)c2ccc(N3c4ccccc4Oc4ccccc43)cc2)cc1)c1ccc(N2c3ccccc3Oc3ccccc32)cc1`: where the note is “in Cc1ccccc1”, the absorption maximum was determined as 425 nm.

The compound `Nc1ccc2nc3c4ccccc4c(=[NH2+])cc-3oc2c1` showed an absorption maximum (in CCO) of 600 nm.

For `Nc1cc2ccc3cccc4ccc(c1)c2c34`, the absorption maximum is on record as 338 nm (in CC#N), 338 nm (in CCCCOCCCC) and 336 nm (in CO).

With `N#Cc1c[nH]c2ccccc12`, the absorption maximum by setting is: (in C1COCCO1) 277.3 nm; (in CC#N) 276.25 nm.

Consider `CCN(CC)c1ccc(-c2nc3c(nc2-c2ccc(B(c4c(C)cc(C)cc4C)c4c(C)cc(C)cc4C)cc2)c2ccccc2n3C)cc1`, for which the absorption maximum (in C1CCOC1) turned out to be 405 nm.

As for `CCCCn1c(-c2ccc(-c3ccc(-c4ccc(-c5n(CCCC)c6cc(C)ccc6[n+]5CCCC)cc4)cc3)cc2)[n+](CCCC)c2ccc(C)cc21`, where the note is “in O”, the absorption maximum was 304 nm.

Regarding `CCOC(=O)c1c(NC(C)(C)C)oc(-c2ccc(-c3ccccc3)cc2)c1C(=O)OCC`, the absorption maximum (in CC#N) is 355 nm.

As to `COc1ccccc1C1=C2C(C)=CC(C)=[N+]2[B-](F)(F)n2c(C)cc(C)c21`, the absorption maximum runs as follows: (in C1CCOC1) 503 nm; (in CC#N) 499 nm; (in CC(=O)C(C)(C)C) 502 nm; (in CC(C)=O) 501 nm; (in CCCCCC) 504 nm; (in CCOC(C)=O) 502 nm. The compound further displayed an absorption maximum (in CO) of 500 nm.

With `CCCCC(CC)CN1C(=O)c2cccc3c(C#Cc4ccc(N(c5ccc(C#Cc6ccc7c8c(cccc68)C(=O)N(CC(CC)CCCC)C7=O)cc5)c5ccc(C#Cc6ccc7c8c(cccc68)C(=O)N(CC(CC)CCCC)C7=O)cc5)cc4)ccc(c23)C1=O` (stereo not drawn), the absorption maximum amounted to 444 nm (in C1CCCCC1); 447 nm (in C1CCOC1); 454 nm (in CC#N); 446 nm (in Cc1ccccc1); 453 nm (in ClC(Cl)Cl).

As for `Brc1ccc(/C=C/c2cnc3ccccc3n2)cc1`, for the setting “in ClCCl”, the absorption maximum worked out at 369 nm.

In turn, `CN(C)c1ccc(C#Cc2cc(C#Cc3ccc(C(F)(F)F)cc3)c3ccc4c(C#Cc5ccc(C(F)(F)F)cc5)cc(C#Cc5ccc(N(C)C)cc5)c5ccc2c3c54)cc1` had an absorption maximum (in ClCCl) of 506 nm.

As for `CCC1(CC)c2cc(C#Cc3cc(C#Cc4ccc5c(c4)C(CC)(CC)c4cc(N(c6ccccc6)c6ccccc6)ccc4-5)c4ccc5c(C#Cc6ccc7c(c6)C(CC)(CC)c6cc(N(c8ccccc8)c8ccccc8)ccc6-7)cc(C#Cc6ccc7c(c6)C(CC)(CC)c6cc(N(c8ccccc8)c8ccccc8)ccc6-7)c6ccc3c4c65)ccc2-c2ccc(N(c3ccccc3)c3ccccc3)cc21`, the absorption maximum by setting is: (in C1CCCCC1) 500 nm; (in C1CCOC1) 506 nm; (in CCOC(C)=O) 502 nm; (in CN(C)C=O) 506 nm; (in Cc1ccccc1) 503 nm; (in ClC(Cl)Cl) 503 nm. The compound also showed an absorption maximum (in ClCCl) of 504 nm.

For `COC(=O)C1=C(C(=O)OC)C2(c3ccccc3-c3c(Br)cc(Br)cc32)C2(/C=C/c3ccccc3)c3cc(OC)c(OC)cc3CCN12` (stereo not drawn), the absorption maximum (in ClCCl) is 328 nm.

Under “in CC#N”, `C[C@]12SC(=O)C=C1c1nc(-c3ccccc3)[nH]c1C1=CC(=O)S[C@@]12C` registered an absorption maximum of 460 nm.

With `CC(C)c1cccc(C(C)C)c1-n1c(=O)c2ccc3c4ccc5c(=O)n(-c6c(C(C)C)cccc6C(C)C)c(=O)c6cc7c(-c8ccccn8)nc8cc(c1=O)c2c3c8c7c4c56`, under “in ClC(Cl)Cl”, the absorption maximum turned out to be 474 nm.

Where the note is “in ClCCl”, `O=C1c2ccccc2-c2nc3c(F)c(F)c(F)c(F)c3n21` yielded an absorption maximum of 337 nm.

Regarding `CCCCNc1ccc2n1[B-](F)(F)[N+]1=CC(/C=C/C(=O)OC(C)(C)C)=CC1=C2c1c(C)cc(C)cc1C`, where the note is “in ClCCl”, the absorption maximum is 499 nm.

Compound `Fc1ccc2cc3cccc[n+]3cc2c1` came in with an absorption maximum (in O) of 400 nm.

`O=C1CC(c2ccc(C(F)(F)F)cc2)c2c(c3ccccc3c3nc4ccccc4nc23)O1` (stereo not drawn) returned an absorption maximum (in ClC(Cl)Cl) of 409 nm.

With `C/C(=N\Nc1ccc(C#N)cc1)c1cccc(/C(C)=N/Nc2ccc(C#N)cc2)c1`, the absorption maximum reads like this: (in CC#N) 355 nm; (in CCCCCC) 359 nm; (in CO) 346 nm; (in CS(C)=O) 366 nm; (in ClC(Cl)Cl) 353 nm.

Under “in ClC(Cl)Cl”, `F[B-]1(F)n2c(ccc2-c2ccccc2)C(c2ccc(I)cc2)=C2C=CC(c3ccccc3)=[N+]21` registered an absorption maximum of 555 nm.

As to `CCCCn1cc(/C=C/c2cc(=O)oc3cc(C)ccc23)c2ccccc21`, the absorption maximum (in CS(C)=O) worked out at 414 nm and the absorption maximum (in ClC(Cl)Cl) is reported as 398 nm.

In the case of `c1cc2c(N3CCCCC3)c3ccc(=[N+]4CCCCC4)cc-3oc2cc1N1CCCCC1`, the absorption maximum (in ClCCl) came out at 491 nm.
